Data published in paper PMC5544254 (Molecular bioSystems, 2017).

System: SMNDC1_12PC RNA (5′-UTR SMNDC1 mRNA G quadruplex)
Test: Steady-state fluorescence spectroscopy titration, PC reporter quenching
Type: binding
Settings: BSA titrated into SMNDC1_12PC RNA, control experiment, Supplemental Figure 1D

bovine serum albumin [BSA]
change of steady state fluorescence of PC reporter (non-specific control): did not change
